Results from patent US8759338B2, “Heterocyclic kinase inhibitors” (Novartis AG, priority 2008, dated 2014).

Assays:
[1] = molecular target: PIM1 (Homo sapiens (Human), UniProt P11309); assay: Pim1 ATP depletion assay; assay type: biochemical; conditions: 20 μM ATP, 40 μM BAD peptide
Protocol: The activity of PIM1 is measured using a luciferase-luciferin based ATP detection reagent to quantify ATP depletion resulting from kinase-catalyzed phosphoryl transfer to a peptide substrate. Compounds to be tested are dissolved in 100% DMSO and directly distributed into white 384-well plates at 0.5 μA per well. To start the reaction, 10 μl of 5 nM Pim1 kinase and 80 μM BAD peptide (RSRHSSYPAGT-OH) in assay buffer (50 mM HEPES pH 7.5, 5 mM MgCl2, 1 mM DTT, 0.05% BSA) is added into each well. After 15 minutes, 10 μl of 40 μM ATP in assay buffer is added. Final assay concentrations are 2.5 nM PIM1, 20 μM ATP, 40 μM BAD peptide and 2.5% DMSO. The reaction is performed until approximately 50% of the ATP is depleted, then stopped with the addition of 20 μl KinaseGlo Plus (Promega Corporation) solution. The stopped reaction is incubated for 10 minutes and the remaining ATP detected via luminescence on the Victor2 (Perkin Elmer). […] IC50, the half maximal inhibitory concentration, represents the concentration of a test compound that is required for 50% inhibition of its target in vitro.

[2] = molecular target: PIM2 (Homo sapiens (Human), UniProt Q9P1W9); assay: Pim2 ATP depletion assay; assay type: biochemical; conditions: 4 μM ATP, 10 μM BAD peptide
Protocol: The activity of PIM2 is measured using a luciferase-luciferin based ATP detection reagent to quantify ATP depletion resulting from kinase-catalyzed phosphoryl transfer to a peptide substrate. Compounds to be tested are dissolved in 100% DMSO and directly distributed into white 384-well plates at 0.5 μl per well. To start the reaction, 10 μl of 10 nM Pim2 kinase and 20 μM BAD peptide (RSRHSSYPAGT-OH) in assay buffer (50 mM HEPES pH 7.5, 5 mM MgCl2, 1 mM DTT, 0.05% BSA) is added into each well. After 15 minutes, 10 μl of 8 μM ATP in assay buffer is added. Final assay concentrations are 5 nM PIM2, 4 μM ATP, 10 μM BAD peptide and 2.5% DMSO. The reaction is performed until approximately 50% of the ATP is depleted, then stopped with the addition of 20 μl KinaseGlo Plus (Promega Corporation) solution. The stopped reaction is incubated for 10 minutes and the remaining ATP detected via luminescence on the Victor2 (Perkin Elmer).

[3] = molecular target: PIM3 (Homo sapiens (Human), UniProt Q86V86); assay: Pim3 ATP depletion assay; assay type: biochemical; conditions: 40 μM ATP, 100 μM BAD peptide
Protocol: The activity of PIM3 is measured using a luciferase-luciferin based ATP detection reagent to quantify ATP depletion resulting from kinase-catalyzed phosphoryl transfer to a peptide substrate. Compounds to be tested are dissolved in 100% DMSO and directly distributed into white 384-well plates at 0.5 μA per well. To start the reaction, 10 μl of 10 nM Pim3 kinase and 200 μM BAD peptide (RSRHSSYPAGT-OH) in assay buffer (50 mM HEPES pH 7.5, 5 mM MgCl2, 1 mM DTT, 0.05% BSA) is added into each well. After 15 minutes, 10 μl of 80 μM ATP in assay buffer is added. Final assay concentrations are 5 nM PIM1, 40 μM ATP, 100 μM BAD peptide and 2.5% DMSO. The reaction is performed until approximately 50% of the ATP is depleted, then stopped by the addition of 20 μl KinaseGlo Plus (Promega Corporation) solution. The stopped reaction is incubated for 10 minutes and the remaining ATP detected via luminescence on the Victor2 (Perkin Elmer).

[4] = tested on: KMS11 cells; assay: Cell proliferation assay; assay type: cell-based; conditions: KMS-11, 72 h; KMS11 human myeloma cell line, 3 days, CellTiter-Glo
Protocol: KMS11 (human myeloma cell line), were cultured in IMDM supplemented with 10% FBS, sodium pyruvate and antibiotics. Cells were plated in the same medium at a density of 2000 cells per well into 96 well tissue culture plates, with outside wells vacant, on the day of assay. MM1.s (human myeloma cell line), were cultured in RPMI1640 supplemented with 10% FBS, sodium pyruvate and antibiotics. Cells were plated in the same medium at a density of 5000 cells per well into 96 well tissue culture plates, with outside wells vacant, on the day of assay.
Test compounds supplied in DMSO were diluted into DMSO at 500 times the desired final concentrations before dilution into culture media to 2 times final concentrations. Equal volumes of 2× compounds were added to the cells in 96 well plates and incubated at 37° C. for 3 days.
After 3 days plates were equilibrated to room temperature and equal volume of CellTiter-Glow Reagent (Promega) was added to the culture wells. The plates were agitated briefly and luminescent signal was measured with luminometer. The percent inhibition of the signal seen in cells treated with DMSO alone vs. cells treated with control compound was calculated and used to determine EC50 values (i.e., the concentration of a test compound that is required to obtain 50% of the maximum effect in the cells) for tested compounds, as shown in Example 24.

Chain of PIM2 (Q9P1W9 whole entry, species assumed): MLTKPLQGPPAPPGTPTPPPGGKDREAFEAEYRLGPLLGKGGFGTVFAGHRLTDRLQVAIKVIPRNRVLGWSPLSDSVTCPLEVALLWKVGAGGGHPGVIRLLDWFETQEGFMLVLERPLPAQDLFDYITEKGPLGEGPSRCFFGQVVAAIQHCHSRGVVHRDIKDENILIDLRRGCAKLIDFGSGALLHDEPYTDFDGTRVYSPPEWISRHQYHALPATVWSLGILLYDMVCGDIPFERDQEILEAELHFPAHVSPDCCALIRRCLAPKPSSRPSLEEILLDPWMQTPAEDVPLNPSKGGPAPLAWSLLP
Chain of PIM1 (P11309 whole entry, species assumed): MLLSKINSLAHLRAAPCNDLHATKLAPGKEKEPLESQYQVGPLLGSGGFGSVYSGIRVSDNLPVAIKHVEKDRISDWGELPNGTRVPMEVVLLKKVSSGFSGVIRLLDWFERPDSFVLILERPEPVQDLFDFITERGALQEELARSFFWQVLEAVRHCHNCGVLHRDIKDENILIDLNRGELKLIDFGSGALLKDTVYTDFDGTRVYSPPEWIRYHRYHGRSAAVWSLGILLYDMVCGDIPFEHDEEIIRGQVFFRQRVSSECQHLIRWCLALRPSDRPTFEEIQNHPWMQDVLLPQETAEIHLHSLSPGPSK

## NC1C=C(c2ccncc2Nc2cccc3cnc(-c4c(F)cccc4F)nc23)CCC1 (centres unmarked) [Example 1, N-(4-(3-aminocyclohex-1-enyl)pyridin-3-yl)-2-(2,6-difluorophenyl)quinazolin-8-amine]
[1]
  IC50: 0.152 µM
[2]
  IC50: 0.392 µM
[3]
  IC50: 0.078 µM

## N[C@@H]1CN(c2ccncc2Nc2cccc3cnc(-c4c(F)cccc4F)nc23)CC[C@@H]1O [Example 2, (3R,4S)-3-amino-1-(3-(2-(2,6-difluorophenyl)-quinazolin-8-ylamino)-pyridin-4-yl)piperidin-4-ol]
[1]
  IC50: 0.039 µM
[2]
  IC50: 0.09 µM
[3]
  IC50: 0.018 µM

## N[C@@H]1CN(c2ccncc2Nc2cccc3cnc(-c4c(F)cccc4F)nc23)CC[C@H]1O [Example 3, (3R,4R)-3-amino-1-(3-(2-(2,6-difluorophenyl)-quinazolin-8-ylamino)-pyridin-4-yl)piperidin-4-ol]
[1]
  IC50: 0.184 µM
[2]
  IC50: 0.23 µM
[3]
  IC50: 0.067 µM

## CCO[C@@H]1C[C@H](N)CN(c2ccncc2Nc2cccc3cnc(-c4c(F)cccc4F)nc23)C1 [Example 6, N-(4-((3S,5R)-3-amino-5-ethoxypiperidin-1-yl)pyridin-3-yl)-2-(2,6-difluorophenyl)quinazolin-8-amine]
[1]
  IC50: 1.7 µM
[2]
  IC50: 0.46 µM
[3]
  IC50: 2.1 µM

## N[C@@H]1CCCN(c2ccncc2Nc2cccc3cnc(-c4c(F)cccc4F)nc23)C1 [Example 7, (R)-N-(4-(3-aminopiperidin-1-yl)pyridin-3-yl)-2-(2,6-difluorophenyl)quinazolin-8-amine]
[1]
  IC50: 2.1 µM
[2]
  IC50: 3.6 µM
[3]
  IC50: 0.212 µM

## NC1CC(N)CN(c2ccncc2Nc2cccc3cnc(-c4c(F)cccc4F)nc23)C1 (centres unmarked) [Example 8, 1-(3-(2-(2,6-difluorophenyl)quinazolin-8-ylamino)pyridin-4-yl)piperidine-3,5-diamine]
[1]
  IC50: 2.3 µM
[2]
  IC50: 2.5 µM
[3]
  IC50: 0.246 µM

## N[C@@H]1CN(c2ccncc2Nc2cccc3cnc(-c4c(F)cccc4F)nc23)CC[C@H]1F [Example 9, N-(4-((3R,4R)-3-amino-4-fluoropiperidin-1-yl)pyridin-3-yl)-2-(2,6-difluorophenyl)quinazolin-8-amine]
[1]
  IC50: 0.465 µM
[2]
  IC50: 0.498 µM
[3]
  IC50: 0.17 µM

## N[C@H]1CN(c2ccncc2Nc2cccc3cnc(-c4c(F)cccc4F)nc23)CC[C@@H]1F [Example 10, N-(4-((3S,4S)-3-amino-4-fluoropiperidin-1-yl)pyridin-3-yl)-2-(2,6-difluorophenyl)quinazolin-8-amine]
[1]
  IC50: 4.7 µM
[2]
  IC50: > 25 µM
[3]
  IC50: 0.502 µM

## NC1CCCCN(c2ccncc2Nc2cccc3cnc(-c4c(F)cccc4F)nc23)C1 (centres unmarked) [Example 11, N-(4-(3-aminoazepan-1-yl)pyridin-3-yl)-2-(2,6-difluorophenyl)quinazolin-8-amine]
[1]
  IC50: 2.9 µM
[2]
  IC50: > 25 µM
[3]
  IC50: 0.468 µM

## N[C@H]1CCCN(c2ncncc2Nc2cccc3cnc(-c4c(F)cccc4F)nc23)C1 [Example 12, (S)-N-(4-(3-aminopiperidin-1-yl)pyrimidin-5-yl)-2-(2,6-difluorophenyl)quinazolin-8-amine]
[1]
  IC50: 5.4 µM
[2]
  IC50: > 25 µM
[3]
  IC50: 3.9 µM

## N[C@H]1C[C@@H](CF)CN(c2ccncc2Nc2cccc3cnc(-c4c(F)cccc4F)nc23)C1 [Example 13, N-(4-((3S,5R)-3-amino-5-(fluoromethyl)piperidin-1-yl)pyridin-3-yl)-2-(2,6-difluorophenyl)quinazolin-8-amine]
[1]
  IC50: 0.053 µM
[2]
  IC50: 0.02 µM
[4]
  EC50: 7.3 µM
[3]
  IC50: 0.049 µM

## C[C@H]1C[C@@H](N)CN(c2ccncc2Nc2cccc3cnc(-c4c(F)cccc4F)nc23)C1 [Example 14, N-(4-((3R,5S)-3-amino-5-methylpiperidin-1-yl)pyridin-3-yl)-2-(2,6-difluorophenyl)quinazolin-8-amine]
[1]
  IC50: 0.882 µM
[2]
  IC50: 0.852 µM
[3]
  IC50: 0.18 µM

## C[C@@H]1C[C@H](N)CN(c2ccncc2Nc2cccc3cnc(-c4c(F)cccc4F)nc23)C1 [Example 15, N-(4-((3S,5R)-3-amino-5-methylpiperidin-1-yl)pyridin-3-yl)-2-(2,6-difluorophenyl)quinazolin-8-amine]
[1]
  IC50: 0.018 µM
[2]
  IC50: 0.009 µM
[4]
  EC50: 2.6 µM
[3]
  IC50: 0.019 µM

## N[C@H]1CCCN(c2ccncc2Nc2cccc3cnc(-c4nccs4)nc23)C1 [Example 16, (S)-N-(4-(3-aminopiperidin-1-yl)pyridin-3-yl)-2-(thiazol-2-yl)quinazolin-8-amine]
[1]
  IC50: 0.411 µM
[2]
  IC50: 1.9 µM
[3]
  IC50: 0.149 µM

## N[C@H]1CCCN(c2ccncc2Nc2cccc3cnc(-c4c(F)cccc4F)nc23)C1 [Example 17, (S)-N-(4-(3-aminopiperidin-1-yl)pyridin-3-yl)-2-(2,6-difluorophenyl)quinazolin-8-amine]
[1]
  IC50: 0.021 µM
[2]
  IC50: 0.031 µM
[3]
  IC50: 0.016 µM

## N[C@H]1CCCN(c2ccncc2Nc2cccc3cnc(-c4ccccc4F)nc23)C1 [Example 18, (S)-N-(4-(3-aminopiperidin-1-yl)pyridin-3-yl)-2-(2-fluorophenyl)quinazolin-8-amine]
[1]
  IC50: 0.029 µM
[2]
  IC50: 0.131 µM
[3]
  IC50: 0.018 µM

## N[C@H]1CCCN(c2ccncc2Nc2cccc3cnc(-c4cccc(-c5nccs5)c4)nc23)C1 [Example 19, (S)-N-(4-(3-aminopiperidin-1-yl)pyridin-3-yl)-2-(3-(thiazol-2-yl)phenyl)quinazolin-8-amine]
[1]
  IC50: 0.056 µM
[2]
  IC50: 2 µM
[3]
  IC50: 0.095 µM
